# Measured values as given in patent US8648211B2, “Surface-modifying silicone elastomers” (priority 2009, dated 2014).
# Legend:
# Format in all cases: physicochemical
# [1] = Stability of aqueous surfactant solutions (decomposition in water)
# From the text: The durability and environmental stability of modified surfaces are factors to consider for their use in real applications. While silicones are normally very stable to degradation, provided that the conditions remain near neutrality, branched trisiloxanes are notoriously unstable to hydrolysis.^27 Superwetters are usually added to the agents to be dispersed and then used immediately in pH 7 buffers. […] However, it was possible that tethering the superwetter to a surface would change the hydrolytic susceptibility.
# [2] = Hydrolytic stability of APS-modified PDMS soaked in pH 4 and pH 10 solutions
# Method: (§1) The ability of water to wet out a variety of surface modified silicones was also established using the drop shape analyzer. […] Prior to each test, the coupons were thoroughly washed by DI water (FIG. 8).
# The hydrolytic stability of APS-modified PDMS elastomers was tested by soaking for extended periods of time in aqueous pH=4 and pH=10 solutions. […] However, while spreading is impeded after the surface is exposed to such conditions, the water contact angle can still decrease to 20° over 2-3 minutes. The tethered APS is thus more resistant to hydrolytic degradation than APS in solution. Further degradation while soaking the tethered APS in an aqueous solution occurred in the second week, after which no superspreading effect was observed: contact angles decreased only to about 60° over 1-2 minutes.
# [3] = Wetting of polystyrene by aqueous surfactant solutions (drop shape analyzer); conditions: for surface area of drop versus buffer control on polystyrene: 0.1 wt % (0.2 wt %, 0.5 wt %) in phosphate buffer pH=7
# Method: (§2) ^1H NMR and ^13C NMR spectra were obtained on Bruker AC-200 (200-MHz) spectrometer. The molecular weight and mass spectra were determined on a Micromass Global Q-TOF Ultima (MALDI/CapLC-ESI Quadrupole Time of Flight) Mass Spectrometer. ATR-FTIR spectra were obtained on Bio-Rad FTS-40 (Fourier transform IR) spectrometer with an ATR accessory, on which a 45° rectangle ZnSe crystal was used. Surface water contact angle and surface tension were recorded using a Krüss V1.50 drop shape analyzer.
# (§3) The ability of solutions of APS and related compounds to wet substrates was established using a drop shape analyzer. The contact angles and total spreading were established immediately after placing an aqueous drop volume ˜0.02 ml onto the surface of polystyrene (a new Petri dish) or a cleaned glass slide.
# (§4) The ability of APS to disperse an aqueous phosphate buffer solution (pH=7) was determined on both hydrophobic (polystyrene) and hydrophilic (glass) surfaces. […] By contrast, when 1.5 wt % APS was included in the buffer, the maximum wetting diameter area on polystyrene was close to 6.16 cm^2, close to 200 times the area of the original buffer solution. Thus, APS has characteristics of typical superwetters.
# [4] = Water wetting (contact angle, spreading) on surface-modified PDMS
# Method: as §2, §1
# The magnitude of spreading of APS in water was examined, and water on APS tethered to silicone, but not yet considered is the rate of spreading: rapid rates of spreading are also emblematic of superwetters. The water spreading rate on APS-modified PDMS was calculated according to a literature method^26 where: spreading rate=dD/dt (1) and, spreading area=dΔS/dt, (2) wherein D is the diameter of water droplet, S is the surface area covered by water and t is the spreading time. […] That is, replacing a terminal alcohol, acetate, etc., on the PEG block with an allyl group leads only to subtle changes in wetting properties. The situation is quite different when the superwetter is tethered.
# [5] = Shelf-life of APS-modified PDMS stored in air, tested monthly over 5 months
# From the text: as §1
# The shelf-life of the tethered APS was also established by testing spreading behavior monthly over a period of 5 months: samples of APS-modified surfaces were stored without any special protection on the laboratory bench. Subtle changes were observed over time. While the final contact angle (approaching zero) of water droplets was still achieved after 5 months, spreading rates changed appreciably. Rather than two distinct spreading rates, the droplet would spread to a specific radius, stop for several (typically up to 10) seconds and then spread to a new larger radius. This start-stop-start-stop process was repeated up to about 8 times at which point the approximately 0° contact angle was achieved.
# [6] = Wetting of glass by aqueous surfactant solutions (drop shape analyzer); conditions: 0.1 wt % (0.2 wt %, 0.5 wt %) in phosphate buffer pH=7
# Method: as §2, §3, §4
# [7] = 0.02 ml water on APS-modified silicone elastomer
# [8] = PDMS 1 wt % DC1107 grafted with 14.7 wt % APS, 0.02 ml water
substance,measurement,setting,value
Allyl PEO Siloxane [APS],stability of aqueous solution,[1],decomposed in water over a few days to a week
same,"water contact angle after soaking, second week","[2]; APS-modified PDMS soaked in aqueous solution, reached over 1-2 minutes, no superspreading",about 60 °
same,"water contact angle after soaking, first week","[2]; APS-modified PDMS soaked in pH=4 and pH=10 solutions, reached over 2-3 minutes",20 °
same,area of one drop after spreading,"[3]; 1 wt % aqueous solution, from 0.03 cm^2, in 5 seconds, surface not stated, data not shown",4.91 cm^2
same,maximum wetting diameter area on polystyrene,"[3]; 1.5 wt % in aqueous phosphate buffer pH=7, 5 μl buffer control 0.031 cm^2",~6.16 cm^2
same,wetting area relative to the area of the original buffer solution,"[3]; 1.5 wt % in phosphate buffer pH=7, polystyrene",~200 times
same,spreading of aqueous solutions compared with commercial superwetter L77,"[3]; degree and velocity of spreading, surface not stated",approximately the same degree and at a similar velocity to the commercial superwetter L77
same,"spreading rate of water droplet, first 3 seconds","[4]; 0.02 ml water on APS-modified PDMS (1 wt % DC1107, 14.7 wt % APS)",~1 mm s^−1
same,final area covered by water relative to original droplet size,[4]; [7],about 15 times
same,water contact angle within about 1 minute,[4]; [7],below 10 °
same,contact angle at the edge of the spread droplet when the drop ceases to migrate,[4]; APS-modified PDMS,~0 °
same,increase of water spreading area during first 3 seconds,[4]; [8],8 times
same,"spreading rate of water droplet, subsequent 30 seconds",[4]; [8],approximately 0.1 mm s^−1
same,water contact angle on APS-grafted silicone surfaces within one minute,"[4]; distilled water, in some cases, depends on surface coverage",nearly zero
same,Contact Angle (°),[4]; water droplets 0.02 ml on modified PDMS prepared with 1% DC1107,0 °
same,Wetting Diameter (mm),"[4]; water droplets 0.02 ml, initial radius ~1.0 mm, final diameter after 1 min, modified PDMS, 1% DC1107",8 mm
same,final water contact angle after 5 months,[5]; APS-modified surface stored on the laboratory bench,approximately 0 °
same,time surface remained superhydrophilic,"[5]; APS-modified surface, storage in air",at least 5 months
Diallyl-Terminated PEO [DAP],surface area of drop versus buffer control on polystyrene,[3],only marginally larger surface areas
same,superwetting properties of compound or compound-modified surfaces,[4]; in aqueous solution and grafted to PDMS,do not have superwetting properties
same,lowest contact angle of grafted PDMS,"[4]; pure DAP grafted to PDMS at 10, 20, 50% in THF",80 °
same,surface area of drop versus buffer control on glass,[6],only marginally larger surface areas
bis-heptamethyltrisiloxanyl-PEG [SiPS],surface area of drop versus buffer control on polystyrene,[3],only marginally larger surface areas
same,surface area of drop versus buffer control on glass,[6],only marginally larger surface areas
